The results in this text go back to patent US4895937A, “5-ioso-2-pyrimidinone nucleoside” (The Research Foundation of State University of New York, priority 1988, dated 1990).

For one assay, the system named is HSV-2 (strain 333). As to the kind of experiment: Antiviral activity, HSV-2 plaque reduction (Example 8 Part A). In kind it is cell-based. Here is the method: The effects of 1-(2-Deoxy-β-D-ribofuranosyl)-5-iodo-2-pyrimidinone (IPdR) of Example 3 were compared with 1-(2-Deoxy-β-D-ribofuranosyl)-5-fluoro-2-pyrimidinone (FPdR) on HSV-2 (strain 333) in […]. Twenty four well plates (sterile) were plated with 10^6 Vero cells/well the day before infecting. 250 PFU of HSV-2 were used in each well. The test compounds, IPdR and FPdR, were added at zero times of post infection and the cultures incubated at 37° C. for 48 hours. At the end of the incubation period the media was removed from Vero cells. Plates were strained with 0.8% crystal violet in 50% ethanol for 15 minutes. The plaque was counted.

Assay [1] relates to BVdU resistant strain of HSV-1. Nature of the assay: Antiherpes activity, BVdU resistant strain (Example 10). In kind it is cell-based. Particulars: Human alphaherpesvirus 1, read-out: plaque-forming units as % of control. On the procedure:
IPdR and 5-bromo-2-pyrimidinone-2-deoxyribonucleoside (BrPdR) were tested for antiherpes activity according to procedures described by Cheng, Y.-C., et al. Antimicrob. Agents Chemother (1976) 10, 119.

As usually defined, the inhibition is the relative decrease from the control value, in per cent. Consider `O=c1ncc(I)cn1[C@H]1C[C@H](O)[C@@H](CO)O1` [IPdR, 1-(2-Deoxy-β-D-Ribofuranosyl)-5-iodo-2-pyrimidinone], for which, in the assay on HSV-2 (strain 333), the “antiviral activity, comparison of IPdR and FPdR” value is recorded as “comparable in antiviral activity”. In the assay on HSV-2 (strain 333) (Human alphaherpesvirus 2, Vero, 100 μM, 48 hours), 100 µM produced 51.1% inhibition. Besides, the activity at 100 µM in assay [1] is 14%.
